Measured values reported in article PMC6882492, “Synthesis and biological evaluation of novel thienopyrimidine derivatives as diacylglycerol acyltransferase 1 (DGAT-1) inhibitors” (Journal of Enzyme Inhibition and Medicinal Chemistry, 2019).
pIC50: −log10 of the molar value.

Tests used:
[1] = In vitro microsomal stability, human; format: in vitro ADME; conditions: human liver microsomes, 5 μM, 60 min
plasma TAG level [2] = test: Oral lipid tolerance test (OLTT), mouse; format: in vivo; conditions: ICR mice, 17a 3 mg/kg po before corn oil, n = 5
Experimental: Male, Institute of Cancer Research (ICR) mice were obtained from OrientBio Inc. (Republic of Korea). ICR mice (8-weeks old, n = 5/group) fasted 16 h, received 5 mL/kg corn oil via oral administration (p.o.) 30 min after compound administration. Plasma was collected at different time points (0, 1, 2, and 4 h).
(§1) To determine in vivo efficacy, we evaluated the activity of 17a against serum TAG level induced by the oral administration of corn oil (oral lipid tolerance test, OLTT; Figures 3 and 4), since intestinal targeted DGAT-1 inhibition results in a reduced serum TAG level. 17a was orally administered to ICR mice at 3 mg/kg or to dogs at 1 mg/kg before administration of corn oil.
Figure 3. Effect of 17a in the oral lipid tolerance test (n = 5, ***p < .001). Serum TG (or TAG) concentration was measured before and 1, 2, and 4 h after oral administration of corn oil in ICR mice treated with 17a (3 mg/kg) or 2 (1 mg/kg). Vehicle for 2: 0.5% methylcellulose/0.5% Tween80 in distilled water, vehicle for 17a: 0.5% Tween80 in distilled water.

[3] = In vitro microsomal stability, rat; format: in vitro ADME; conditions: rat liver microsomes, 5 μM, 60 min
hDGAT2 = molecular target: T1, hDGAT2 (Homo sapiens, UniProt Q96PD7); test: Enzymatic assay hDGAT2; format: biochemical
T1 sequence (Q96PD7 1-388): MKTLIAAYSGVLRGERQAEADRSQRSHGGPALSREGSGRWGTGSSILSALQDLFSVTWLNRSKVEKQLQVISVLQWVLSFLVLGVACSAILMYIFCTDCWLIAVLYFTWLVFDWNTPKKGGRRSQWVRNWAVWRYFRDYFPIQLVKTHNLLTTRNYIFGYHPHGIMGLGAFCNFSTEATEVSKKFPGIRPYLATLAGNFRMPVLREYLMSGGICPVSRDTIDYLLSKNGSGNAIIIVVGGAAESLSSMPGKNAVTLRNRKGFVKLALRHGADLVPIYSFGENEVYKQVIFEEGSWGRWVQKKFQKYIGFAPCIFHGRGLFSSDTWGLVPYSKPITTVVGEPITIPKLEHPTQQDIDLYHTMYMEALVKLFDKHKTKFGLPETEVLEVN
From the text: (§2) ACATs have sequence homology to DGAT-1 and play essential roles in cholesterol homeostasis. 17b was not explored in the enzymatic assays due to its poor pharmacokinetic profile.

[4] = Pharmacokinetic profile in ICR mice; conditions: mouse, in vivo
[5] = Tissue distribution in mice; format: in vivo; conditions: ICR mice, 30 mg/kg oral, n = 3
Experimental: In addition, tissue distribution of 17a was investigated. 17a was orally administered to mice at 30 mg/kg, and 2 was administrated as a positive control (Figure 5). […] Significant activity of 17a in the OLTT appeared to result from high concentration in the small intestine, even though bioavailability of 17a was not great in mice.
Figure 5. Tissue distribution of 17a in mice. 17a and 2 were orally administered to ICR mice at 30 mg/kg (n = 3). (a) AUC values of 17a and 2 in indicated tissues. […] Data represent mean value. (b) Tissue-to-plasma (T/P) ratio of 17a and 2. S.I.: small intestine, L.I.: large intestine.

[6] = In vitro microsomal stability, mouse; format: in vitro ADME; conditions: mouse liver microsomes, 5 μM, 60 min
hACAT2 = molecular target: T2, hACAT2 (Homo sapiens, UniProt O75908); test: Enzymatic assay hACAT2; format: biochemical
T2 sequence (O75908 1-522): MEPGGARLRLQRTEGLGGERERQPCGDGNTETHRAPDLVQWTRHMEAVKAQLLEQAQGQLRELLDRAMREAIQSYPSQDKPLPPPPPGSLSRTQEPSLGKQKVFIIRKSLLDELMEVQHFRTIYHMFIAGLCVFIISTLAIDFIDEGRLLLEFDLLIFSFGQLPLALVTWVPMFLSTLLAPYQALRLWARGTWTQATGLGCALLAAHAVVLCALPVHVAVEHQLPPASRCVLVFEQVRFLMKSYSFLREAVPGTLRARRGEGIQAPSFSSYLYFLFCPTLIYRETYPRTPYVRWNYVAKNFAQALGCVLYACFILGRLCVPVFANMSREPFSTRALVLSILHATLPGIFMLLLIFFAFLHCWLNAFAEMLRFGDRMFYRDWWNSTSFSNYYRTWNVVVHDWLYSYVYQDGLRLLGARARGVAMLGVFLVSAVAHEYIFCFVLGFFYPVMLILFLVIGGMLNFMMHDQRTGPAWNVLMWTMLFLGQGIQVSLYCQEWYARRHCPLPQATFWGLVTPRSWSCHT
From the text: as §2

plasma TAG level [7] = test: Oral lipid tolerance test (OLTT), dog; format: in vivo, Beagle dogs; conditions: dogs, 17a 1 mg/kg po, n = 2
Experimental: Beagle dogs (9 months old, n = 2/group) were obtained from Woojung Bio Inc. (Republic of Korea) were fasted for 16 h and received heavy cream (2.7 mL/kg), glucose (1 g/kg), water (5.3 mL/kg), and acetaminophen (20 mg/kg p.o.) 1 h after compound administration. Blood samples were collected at –0.5, 0, 1, 2, and 4 h.
as §1
Figure 4. Effect of 17a in a canine oral lipid tolerance test (n = 2, *p < .05; ***p < .001). The dog was treated with 17a (po. 1 mg/kg) or 2 (po. 1 mg/kg) before oral administration of corn oil. Vehicle for 2: 0.5% methylcellulose/0.5% Tween80 in distilled water, vehicle for 17a: 0.5% Tween80 in distilled water.

CYP2C9 = CYP2C9 (Homo sapiens, UniProt P11712); test: CYP inhibition assay CYP2C9; format: in vitro ADME; conditions: fluorescence detection method; read-out: CYPs enzyme inhibition, IC50, CYP2C9
CYP2C9, sequence (P11712 whole entry): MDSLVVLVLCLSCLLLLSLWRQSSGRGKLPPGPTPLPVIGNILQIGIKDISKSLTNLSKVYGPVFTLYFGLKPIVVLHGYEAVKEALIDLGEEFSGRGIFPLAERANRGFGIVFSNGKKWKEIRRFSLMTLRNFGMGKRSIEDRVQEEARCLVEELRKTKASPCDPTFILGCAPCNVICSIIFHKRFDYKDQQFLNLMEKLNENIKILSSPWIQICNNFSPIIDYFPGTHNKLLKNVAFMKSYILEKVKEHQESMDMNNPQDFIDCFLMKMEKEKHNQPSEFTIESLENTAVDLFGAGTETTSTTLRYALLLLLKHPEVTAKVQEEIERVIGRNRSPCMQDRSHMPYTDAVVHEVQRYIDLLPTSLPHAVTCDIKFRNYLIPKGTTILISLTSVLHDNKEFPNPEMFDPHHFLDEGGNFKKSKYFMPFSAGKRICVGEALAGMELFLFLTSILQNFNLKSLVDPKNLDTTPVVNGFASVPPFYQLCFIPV

SMILES: O=C([O-])C[C@H]1CC[C@@H](c2csc3c(-c4ccc(NC(=O)Nc5cccc(Cl)c5)cc4)ncnc32)CC1.[Na+] [Compound 17a, Sodium cis-2–(4–(4-(4-(3–(3-chlorophenyl)ureido)phenyl)thieno[3,2-d]pyrimidin-7-yl)cyclohexyl)acetate]
- Microsomal stability, remaining percent [1]: 94%
- Reduction of plasma TAG level in OLTT (plasma TAG level [2]): significant activity, as potent as compound 2
- Microsomal stability, remaining percent [3]: 87%
- pIC50 (hDGAT2): < 5.00
- bioavailability ([4]; oral 10 mg/kg vs iv 3 mg/kg): 19%
- Cmax ([4]; oral 10 mg/kg, n = 3): 479 ng/mL
- half-life ([4]; oral 10 mg/kg, n = 3): 1.2 h
- AUC ([4]; oral 10 mg/kg, n = 3, read-out: AUC 0∼24): 861 ng·h/mL
- Tissue distribution (concentration levels in tissues) [5]: in the liver and small intestine were much higher than in other tissues
- Microsomal stability, remaining percent [6]: 82%
- pIC50 (hACAT2): < 5.00
- Reduction of TAG in OLTT (plasma TAG level [7]): significant reduction of TAG
- pIC50 (CYP2C9): 5.54
